Reference: ChEMBL document CHEMBL3882389, “Phosphatidylinositol 3-Kinase Inhibitors for the Treatment of Lymphoproliferative Malignancies” (2014)
Activity calls are given as the source filed them.

Key:
Homo sapiens [1] = assay: In vivo inhibition of PI3K in PBMC of po dosed solid tumor patient administered once daily; format: functional, organism-based
Homo sapiens [2] = assay: In vivo inhibition of PI3K in hair follicle of po dosed solid tumor patient administered once daily; format: functional, organism-based
Homo sapiens [3] = assay: In vivo inhibition of PI3K in skin of po dosed solid tumor patient administered once daily; format: functional, organism-based
Homo sapiens [4] = assay: In vivo inhibition of PI3K in tumor tissue of po dosed solid tumor patient administered once daily; format: functional, organism-based
[5] = Toxicity in po dosed patient with chronic lymphocytic leukemia and lymphoma assessed as induction of grade 3 rash at 600 mg, po administered once daily for 21 days followed by 7 days rest; format: organism-based; conditions: human, in vivo
[6] = Toxicity in po dosed patient with chronic lymphocytic leukemia and lymphoma assessed as induction of grade 3 hypersensitivity at 600 mg, po administered once daily for 21 days followed by 7 days rest; format: organism-based; conditions: human, in vivo
[7] = Toxicity in patient with chronic lymphocytic leukemia and lymphoma assessed as incidence of neutrophenia at 600 mg, po qd for 21 days co-administered with paclitaxel and carboplatin during phase 1 open label non-randomized trial relative to control; format: organism-based; conditions: human, in vivo, 504 h
[8] = Toxicity in patient with chronic lymphocytic leukemia and lymphoma assessed as incidence of grade more than equal 3 neutrophenia at 600 mg, po qd for 21 days co-administered with paclitaxel and carboplatin during phase 1 open label non-randomized trial relative to control; format: organism-based; conditions: human, in vivo, 504 h
[9] = Toxicity in patient with chronic lymphocytic leukemia and lymphoma assessed as incidence of grade more than equal 3 anemia at 600 mg, po qd for 21 days co-administered with paclitaxel and carboplatin during phase 1 open label non-randomized trial relative to control; format: organism-based; conditions: human, in vivo, 504 h
[10] = Toxicity in patient with chronic lymphocytic leukemia and lymphoma assessed as incidence of diarrhea at 600 mg, po qd for 21 days co-administered with paclitaxel and carboplatin during phase 1 open label non-randomized trial relative to control; format: organism-based; conditions: human, in vivo, 504 h
[11] = Toxicity in patient with chronic lymphocytic leukemia and lymphoma assessed as incidence of cough at 600 mg, po qd for 21 days co-administered with paclitaxel and carboplatin during phase 1 open label non-randomized trial relative to control; format: organism-based; conditions: human, in vivo, 504 h
[12] = Toxicity in patient with chronic lymphocytic leukemia and lymphoma assessed as incidence of grade more than equal 3 cough at 600 mg, po qd for 21 days co-administered with paclitaxel and carboplatin during phase 1 open label non-randomized trial relative to control; format: organism-based; conditions: human, in vivo, 504 h
[13] = Toxicity in patient with chronic lymphocytic leukemia and lymphoma assessed as incidence of grade more than equal 3 pyrexia at 600 mg, po qd for 21 days co-administered with paclitaxel and carboplatin during phase 1 open label non-randomized trial relative to control; format: organism-based; conditions: human, in vivo, 504 h
[14] = Toxicity in patient with chronic lymphocytic leukemia and lymphoma assessed as incidence of fatigue at 600 mg, po qd for 21 days co-administered with paclitaxel and carboplatin during phase 1 open label non-randomized trial relative to control; format: organism-based; conditions: human, in vivo, 504 h
[15] = Toxicity in patient with chronic lymphocytic leukemia and lymphoma assessed as incidence of grade more than equal 3 fatigue at 600 mg, po qd for 21 days co-administered with paclitaxel and carboplatin during phase 1 open label non-randomized trial relative to control; format: organism-based; conditions: human, in vivo, 504 h
[16] = Toxicity in patient with chronic lymphocytic leukemia and lymphoma assessed as incidence of grade more than equal 3 abdominal pain at 600 mg, po qd for 21 days co-administered with paclitaxel and carboplatin during phase 1 open label non-randomized trial relative to control; format: organism-based, Abdomen; conditions: human, in vivo, 504 h
[17] = Toxicity in patient with chronic lymphocytic leukemia and lymphoma assessed as incidence of dyspnea at 600 mg, po qd for 21 days co-administered with paclitaxel and carboplatin during phase 1 open label non-randomized trial relative to control; format: organism-based; conditions: human, in vivo, 504 h
[18] = Toxicity in patient with chronic lymphocytic leukemia and lymphoma assessed as incidence of grade more than equal 3 dyspnea at 600 mg, po qd for 21 days co-administered with paclitaxel and carboplatin during phase 1 open label non-randomized trial relative to control; format: organism-based; conditions: human, in vivo, 504 h
[19] = Toxicity in patient with chronic lymphocytic leukemia and lymphoma assessed as incidence of hyperglycemia at 600 mg, po qd for 21 days co-administered with paclitaxel and carboplatin during phase 1 open label non-randomized trial relative to control; format: organism-based; conditions: human, in vivo, 504 h
[20] = Toxicity in patient with chronic lymphocytic leukemia and lymphoma assessed as incidence of grade more than equal 3 pruritus at 600 mg, po qd for 21 days co-administered with paclitaxel and carboplatin during phase 1 open label non-randomized trial relative to control; format: organism-based; conditions: human, in vivo, 504 h
[21] = Toxicity in patient with chronic lymphocytic leukemia and lymphoma assessed as incidence of rash at 600 mg, po qd for 21 days co-administered with paclitaxel and carboplatin during phase 1 open label non-randomized trial relative to control; format: organism-based; conditions: human, in vivo, 504 h
[22] = Toxicity in patient with chronic lymphocytic leukemia and lymphoma assessed as incidence of anemia at 600 mg, po qd for 21 days during phase 1 open label non-randomized trial relative to control; format: organism-based; conditions: human, in vivo, 504 h
[23] = Toxicity in patient with chronic lymphocytic leukemia and lymphoma assessed as incidence of grade more than equal 3 anemia at 600 mg, po qd for 21 days during phase 1 open label non-randomized trial relative to control; format: organism-based; conditions: human, in vivo, 504 h
[24] = Toxicity in patient with chronic lymphocytic leukemia and lymphoma assessed as incidence of diarrhea at 600 mg, po qd for 21 days during phase 1 open label non-randomized trial relative to control; format: organism-based; conditions: human, in vivo, 504 h
[25] = Toxicity in patient with chronic lymphocytic leukemia and lymphoma assessed as incidence of cough at 600 mg, po qd for 21 days during phase 1 open label non-randomized trial relative to control; format: organism-based; conditions: human, in vivo, 504 h
[26] = Toxicity in patient with chronic lymphocytic leukemia and lymphoma assessed as incidence of grade more than equal 3 fatigue at 600 mg, po qd for 21 days during phase 1 open label non-randomized trial relative to control; format: organism-based; conditions: human, in vivo, 504 h
[27] = Toxicity in patient with chronic lymphocytic leukemia and lymphoma assessed as incidence of abdominal pain at 600 mg, po qd for 21 days during phase 1 open label non-randomized trial relative to control; format: organism-based, Abdomen; conditions: human, in vivo, 504 h
[28] = Toxicity in patient with chronic lymphocytic leukemia and lymphoma assessed as incidence of dyspnea at 600 mg, po qd for 21 days during phase 1 open label non-randomized trial relative to control; format: organism-based; conditions: human, in vivo, 504 h
[29] = Toxicity in patient with chronic lymphocytic leukemia and lymphoma assessed as incidence of hyperglycemia at 600 mg, po qd for 21 days during phase 1 open label non-randomized trial relative to control; format: organism-based; conditions: human, in vivo, 504 h
[30] = Toxicity in patient with chronic lymphocytic leukemia and lymphoma assessed as incidence of pruritus at 600 mg, po qd for 21 days during phase 1 open label non-randomized trial relative to control; format: organism-based; conditions: human, in vivo, 504 h
[31] = Toxicity in patient with chronic lymphocytic leukemia and lymphoma assessed as incidence of rash at 600 mg, po qd for 21 days during phase 1 open label non-randomized trial relative to control; format: organism-based; conditions: human, in vivo, 504 h
[32] = Toxicity in po dosed patient with chronic lymphocytic leukemia and lymphoma assessed as induction of grade 3 rash at 600 mg, po administered once daily for continuous 21 days; format: organism-based; conditions: human, in vivo, 504 h
[33] = Toxicity in po dosed patient with chronic lymphocytic leukemia and lymphoma assessed as induction of grade 3 hypersensitivity at 600 mg, po once daily for continuous 21 daysrest; format: organism-based; conditions: human, in vivo

COc1ccc(Cl)c(Nc2nc3ccccc3nc2NS(=O)(=O)c2cccc(NC(=O)C(C)(C)N)c2)c1 [PILARALISIB]
7%: Activity [10]
active: inhibition (Homo sapiens [1]) | inhibition (Homo sapiens [2]) | inhibition (Homo sapiens [3]) | inhibition (Homo sapiens [4])
6%: Activity [25]
12%: Activity [24]
Toxic: Activity [5] | Activity [6] | Activity [32] | Activity [33]
4%: Activity [7] | Activity [8] | Activity [19] | Activity [22] | Activity [27] | Activity [28] | Activity [29] | Activity [30] | Activity [31]
0%: Activity [9] | Activity [11] | Activity [12] | Activity [13] | Activity [14] | Activity [15] | Activity [16] | Activity [17] | Activity [18] | Activity [20] | Activity [26]
3%: Activity [21] | Activity [23]
